Results taken from patent US7265099B1, “Use of chemical chelators as reversal agents for drug-induced neuromuscular block” (Organon N.V., priority 1999, dated 2007).
Marks after values point to notes of the source that are not given here.

Experiments:
[1] = test system: steady-state neuromuscular block induced by rapacuronium bromide (Rap; Org 9487); assay: Reversal of neuromuscular blockade in vivo, anaesthetized guinea pig, rapacuronium; details: Rap infusion, 85–90% block, anaesthetized guinea pigs, i.v. reversal agent; mean
Protocol: (§1) Male Dunkin-Hartley guinea pigs (bodyweight: 600–900 g) were anaesthetized by i.p. administration of 10 mg/kg pentobarbitone and 1000 mg/kg urethane. After tracheotomy, the animals were artificially ventilated using a Harvard small animal ventilator. A catheter was placed into the carotid artery for continuous monitoring of arterial blood pressure and the taking of blood samples for blood gas analysis. Heart rate was derived from the blood pressure signal. The sciatic nerve was stimulated (rectangular pulses of 0.5 ms duration at 10 s (0.1 Hz) intervals at a supramaximal voltage, using a Grass S88 Stimulator) and the force of M. gastrocnemius contractions was measured using a Grass FT03 force-displacement transducer. Contractions, blood pressure and heart rate were recorded on a multichannel Grass 7D recorder. Catheters were placed in both jugular veins. One catheter was used for the continuous infusion of a neuromuscular blocking agent. The infusion rate of the neuromuscular blocking agent was increased until a steady-state block of 85–90% was obtained. The other catheter was used for administration of increasing doses of the reversal agent. During continuous infusion of the neuromuscular blocking agent, single doses of increasing concentration of reversal agent were given. At the end of the experiment, the measured force of muscle contractions was plotted against the concentration of reversal agent, and using regression analysis techniques, the 50% reversal concentration was calculated.

[2] = test system: steady-state neuromuscular block induced by vecuronium bromide (Vec); assay: Reversal of neuromuscular blockade in vivo, anaesthetized guinea pig, vecuronium; details: Vec infusion, 85–90% block, anaesthetized guinea pigs, i.v. reversal agent; mean
Protocol: as §1

[3] = test system: steady-state neuromuscular block induced by pancuronium bromide (Pan); assay: Reversal of neuromuscular blockade in vivo, anaesthetized guinea pig, pancuronium; details: Pan infusion, 85–90% block, anaesthetized guinea pigs, i.v. reversal agent; mean
Protocol: as §1

[4] = test system: steady-state neuromuscular block induced by suxamethonium chloride (Sux; succinylcholine); assay: Reversal of neuromuscular blockade in vivo, anaesthetized guinea pig, suxamethonium; details: Sux infusion, 85–90% block, anaesthetized guinea pigs, i.v. reversal agent; mean
Protocol: as §1

[5] = test system: steady-state neuromuscular block induced by atracurium besilate (Atr); assay: Reversal of neuromuscular blockade in vivo, anaesthetized guinea pig, atracurium; details: Atr infusion, 85–90% block, anaesthetized guinea pigs, i.v. reversal agent; mean
Protocol: as §1

[6] = test system: steady-state neuromuscular block induced by cis-atracurium (Cis-Atr); assay: Reversal of neuromuscular blockade in vivo, anaesthetized guinea pig, cis-atracurium; details: Cis-Atr infusion, 85–90% block, anaesthetized guinea pigs, i.v. reversal agent; mean
Protocol: as §1

[7] = test system: neuromuscular block induced by rocuronium in isolated mouse hemidiaphragm; assay: Reversal of neuromuscular block in vitro: isolated mouse hemidiaphragm preparation; details: for Mouse hemidiaphragm: maximum reversal (%) / concentration of chemical chelator at maximum reversal: 3.1 μM rocuronium; for concentration of chemical chelator at maximum reversal: mouse hemidiaphragm; for Reversal of the neuromuscular blocking action of rocuronium (in words): rocuronium-induced block
Protocol: Hemidiaphragms, with phrenic nerves attached, were removed from euthanized male mice (Institute of Cancer Research; bodyweight: 20–60 g). The preparations were mounted on a tissue holder and placed in a tissue bath filled with a modified Krebs-Henseleit solution (composition: 118 mM NaCl, 30 mM NaHCO3, 5 mM KCl, 1 mM KH2PO4, 1 mM MgSO4, 30 mM glucose and 2.5 mM CaCl2) at 37° C. and bubbled with 95% oxygen and 5% carbondioxide. One end of the preparation was connected with a siliconized silk suture to a Grass FT03 force-displacement transducer. An initial force of 10 mN was applied. The phrenic nerve was placed on a bipolar platinum electrode and was stimulated with rectangular pulses of 0.2 ms duration at 20 s (0.05 Hz) intervals at a supramaximal voltage, using a Grass S88 Stimulator. Contractions were recorded on a four channel Grass 79D recorder.
Increasing amounts of reversal agent were then administered into the bath at intervals of 10 min. The % maximum reversal was established. At the end of the experiment, the measured muscle contractions force was plotted against the concentration of reversal agent, and using regression analysis techniques, the 50% reversal concentration was calculated.
After induction of neuromuscular block by rocuronium, the % maximum reversal produced by the addition of a number of γ-cyclodextrin derivatives (compounds 11–16), a cyclic octasaccharide comprising 4 rhamnosyl-mannopyranosyl units (compound 24), or a number of paracyclophane derivatives (compounds 17–21 and 23) are presented in Table II.
Reversal of neuromuscular block in vitro was carried out using the mouse hemidiaphragm preparation as described in Example 6.

[8] = test system: steady-state neuromuscular block induced by rocuronium bromide (Roc); assay: Reversal of neuromuscular blockade in vivo, anaesthetized guinea pig, rocuronium; details: Roc infusion, 85–90% block, anaesthetized guinea pigs, i.v. reversal agent; mean
Protocol: as §1
Reversal of neuromuscular block in vivo, induced by rocuronium bromide, was carried out as described in Example 5.

[9] = test system: steady-state neuromuscular block induced by mivacurium chloride (Miv); assay: Reversal of neuromuscular blockade in vivo, anaesthetized guinea pig, mivacurium; details: Miv infusion, 85–90% block, anaesthetized guinea pigs, i.v. reversal agent; mean
Protocol: as §1

[10] = test system: steady-state neuromuscular block induced by tubocurarine chloride (T-C); assay: Reversal of neuromuscular blockade in vivo, anaesthetized guinea pig, tubocurarine; details: T-C infusion, 85–90% block, anaesthetized guinea pigs, i.v. reversal agent; mean
Protocol: as §1

[11] = Complexation of rocuronium bromide by chemical chelators (1H NMR, 303 K); format: binding; details: NMR spectroscopy at 303 K, D2O, curve fitting of proton chemical shift changes
Protocol: All the ^1H spectra (303 K) were recorded at 400.13 MHz with 128 scans, sw=12 ppm, TD=32 k and zero filled to 64 k real points in processing. All experiments were measured at 303K.
Determination of Stoichiometry
Stock solutions of rocuronium bromide and γ-cyclodextrin (15) were prepared, both with a concentration of 6.02 mM. From these, sixteen solutions were prepared (with the mole % of rocuronium ranging from 0-100) by taking aliquots of 0–800 μl of the rocuronium bromide solution. Aliquots of the γ-cyclodextrin solution, 800–0 μl were added to make the solution a total volume of 800 μl and 100 mole % (i.e. 6.02 mM of [rocuronium bromide+γ-cyclodextrin]). ^1H-NMR spectra were recorded as described above.
If the chemical shift change of H9α in rocuronium bromide is defined as Δδ then a plot of [Δδ*(mole % rocuronium bromide)] vs. [mole % rocuronium bromide] gives a so called Job Plot by the method of continuous variation (Connors K. A.: Binding constants, The measurement of Molecular Complex Stability; Wiley-Interscience; New York, 1987, pp 24–28). The maximum in this plot is indicative for the stoichiometry of the complex.
Determination of the Association Constants
A stock solution of rocuronium bromide: 0.821 mM in D2O was prepared. […]
^1H NMR spectra were recorded as descibed above. […]

| Compound | Dose (ED50) producing 50% reversal of steady-state neuromuscular block [1] | Dose (ED50) producing 50% reversal of steady-state neuromuscular block [2] | Dose (ED50) producing 50% reversal of steady-state neuromuscular block [3] | Dose (ED50) producing 50% reversal of steady-state neuromuscular block [4] | Dose (ED50) producing 50% reversal of steady-state neuromuscular block [5] | Dose (ED50) producing 50% reversal of steady-state neuromuscular block [6] | Mouse hemidiaphragm: maximum reversal (%) [7] | concentration of chemical chelator at maximum reversal [7] | Reversal of the neuromuscular blocking action of rocuronium (in words) [7] | Dose (ED50) producing 50% reversal of steady-state neuromuscular block [8] | Dose (ED50) producing 50% reversal of steady-state neuromuscular block [9] | Dose (ED50) producing 50% reversal of steady-state neuromuscular block [10] | Association constant (Ka, M^−1) of 1:1 complex of rocuronium bromide and cyclic host compound [11] |
| --- | --- | --- | --- | --- | --- | --- | --- | --- | --- | --- | --- | --- | --- |
| carboxyethyl-γ-CD (DS = 3.8) [Compound 14] | 43 (3) μmol.kg^−1 | 25 (3) μmol.kg^−1 | 141 (3) μmol.kg^−1 | 1294 (2) μmol.kg^−1 | 421 (2) μmol.kg^−1 | 1558 (3) μmol.kg^−1 | 87% | 144 µM | efficiently blocked | 7 (3) μmol.kg^−1 | 399 (2) μmol.kg^−1 | 294 (2) μmol.kg^−1 |  |
| carboxymethyl-γ-CD (DS = 3.2) [Compound 13] | 227 (2) μmol.kg^−1 | 30 (3) μmol.kg^−1 | 641 (4) μmol.kg^−1 | 999 (2) μmol.kg^−1 | 990 (2) μmol.kg^−1 | 893 (2) μmol.kg^−1 | 88% | 180 µM | efficiently blocked | 25 (4) μmol.kg^−1 | 964 (3) μmol.kg^−1 | 431 (2) μmol.kg^−1 |  |
| OC[C@H]1O[C@@H]2O[C@H]3[C@H](O)[C@@H](O)[C@@H](O[C@H]4[C@H](O)[C@@H](O)[C@@H](O[C@H]5[C@H](O)[C@@H](O)[C@@H](O[C@H]6[C@H](O)[C@@H](O)[C@@H](O[C@H]7[C@H](O)[C@@H](O)[C@@H](O[C@H]8[C@H](O)[C@@H](O)[C@@H](O[C@H]9[C@H](O)[C@@H](O)[C@@H](O[C@H]1[C@H](O)[C@H]2O)O[C@@H]9CO)O[C@@H]8CO)O[C@@H]7CO)O[C@@H]6CO)O[C@@H]5CO)O[C@@H]4CO)O[C@@H]3CO [Compound 15, γ-cyclodextrin] | 57 (3) μmol.kg^−1 | 75 (4) μmol.kg^−1 | 186 (4) μmol.kg^−1 | 1189 (2) μmol.kg^−1 | 2793 (4) μmol.kg^−1 | 1710 (2) μmol.kg^−1 | 94% | 144 µM | efficiently blocked | 4 (3) μmol.kg^−1 | 1690 (2) μmol.kg^−1 | 630 (2) μmol.kg^−1 | 10,000–20,400# M^−1 |
| OC[C@H]1O[C@@H]2O[C@H]3[C@H](O)[C@@H](O)[C@@H](O[C@H]4[C@H](O)[C@@H](O)[C@@H](O[C@H]5[C@H](O)[C@@H](O)[C@@H](O[C@H]6[C@H](O)[C@@H](O)[C@@H](O[C@H]7[C@H](O)[C@@H](O)[C@@H](O[C@H]8[C@H](O)[C@@H](O)[C@@H](O[C@H]1[C@H](O)[C@H]2O)O[C@@H]8CO)O[C@@H]7CO)O[C@@H]6CO)O[C@@H]5CO)O[C@@H]4CO)O[C@@H]3CO [Compound 9, β-cyclodextrin] | 358 (3) μmol.kg^−1 | 636 (1) μmol.kg^−1 | 1050 (2) μmol.kg^−1 |  |  |  |  |  |  | 20 (3) μmol.kg^−1 |  |  | 3,100–3,900* M^−1 |
| 2-hydroxypropyl-γ-CD (DS = 4) [Compound 16] | 134 (3) μmol.kg^−1 | 123 (3) μmol.kg^−1 | 440 (3) μmol.kg^−1 | 1340 (2) μmol.kg^−1 | 828 (2) μmol.kg^−1 | 878 (2) μmol.kg^−1 | 71% | 360 µM |  | 12 (3) μmol.kg^−1 | 1674 (2) μmol.kg^−1 | 909 (2) μmol.kg^−1 |  |
| γ-cyclodextrin-phospate sodium salt (DS = 3) [Compound 11] | 80 (3) μmol.kg^−1 | 67 (3) μmol.kg^−1 | 197 (2) μmol.kg^−1 | 160 (2) μmol.kg^−1 | 113 (2) μmol.kg^−1 | 204 (2) μmol.kg^−1 | 34% | 360 µM |  | 64 (3) μmol.kg^−1 | 292 (2) μmol.kg^−1 | 160 (2) μmol.kg^−1 |  |
